Reference: ChEMBL document CHEMBL5543071, “Benzopyran hydrazones with dual PPARα/γ or PPARα/δ agonism and an anti-inflammatory effect on human THP-1 macrophages” (Eur J Med Chem, 2024)

Legend:
THP-1 [1] = assay: Cytotoxicity against human THP-1 cells assessed as reduction in cell viability at 10 to 30 uM incubated for 72 hrs; format: toxicity, cell-based; details: thp-1, 72 h, dose 10-30 µM
[2] = biological target: T1, Peroxisome proliferator-activated receptor gamma (Homo sapiens, UniProt P37231); format: cell-based, COS7
T1 sequence (P37231 whole entry): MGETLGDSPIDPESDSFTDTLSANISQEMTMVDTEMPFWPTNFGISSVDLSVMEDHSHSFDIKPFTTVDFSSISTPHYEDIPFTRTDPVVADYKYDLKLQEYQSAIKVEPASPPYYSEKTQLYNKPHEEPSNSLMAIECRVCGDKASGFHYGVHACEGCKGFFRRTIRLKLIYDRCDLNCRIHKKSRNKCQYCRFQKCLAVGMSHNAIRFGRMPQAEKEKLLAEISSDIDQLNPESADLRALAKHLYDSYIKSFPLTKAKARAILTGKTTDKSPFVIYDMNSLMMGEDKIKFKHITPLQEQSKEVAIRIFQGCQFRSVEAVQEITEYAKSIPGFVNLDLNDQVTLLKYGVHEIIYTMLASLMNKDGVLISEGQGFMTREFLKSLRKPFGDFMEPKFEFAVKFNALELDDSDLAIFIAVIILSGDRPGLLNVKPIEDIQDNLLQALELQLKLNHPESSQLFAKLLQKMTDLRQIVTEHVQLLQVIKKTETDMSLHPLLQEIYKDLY
Description: Agonist activity at human PPARgamma transfected in african green monkey COS7 cells assessed transcriptional activation incubated for 24 hrs by luciferase assay

THP-1 [3] = assay: Cytotoxicity against human THP-1 cells assessed as reduction in cell viability at 100 uM incubated for 72 hrs; format: toxicity, cell-based; details: thp-1, 72 h

EC50 [2] | SMILES | Activity (THP-1 [1]) | Activity (THP-1 [3])
 | C/C(=C\CCC1(C)CCc2cc(OCc3ccc(F)cc3)ccc2O1)CC/C=N/Nc1ncc(Cl)cc1C(F)(F)F (stereo not given) | Non-Toxic | 
 | CC1(CC/C=N/Nc2nc3ccccc3s2)CCc2cc(OCc3ccc(F)cc3)ccc2O1 (stereo not given) | Non-Toxic | 
5.54 µM | CC1(CC/C=N/Nc2ncc(Cl)cc2C(F)(F)F)CCc2cc(OCc3ccc(F)cc3)ccc2O1 (stereo not given) | Non-Toxic | Toxic
